Measured values from PMC6301899, “Characterization, expression and application of a zearalenone degrading enzyme from Neurospora crassa” (AMB Express, 2018).

Target: T1, ZENC (Neurospora crassa, UniProt Q1K8M1)
T1 construct: gene NCU05345; codon-optimised full gene (888 bp; 295 residues in abstract, 296 in results) fused to alpha-factor signal peptide in pPIC9K; secreted from Pichia pastoris GS115, HiTrap Q purified; about 29 kDa by SDS-PAGE; proposed catalytic triad Ser117, Asp141, His274
Test: HPLC with fluorescence detection of remaining substrate; nonlinear Hill fit with n = […]
Assay type: biochemical
Conditions: 50 mM Tris-HCl pH 8.0, 45 °C, 3 min; substrate range printed as 2 to 220 mM

T1 sequence (Q1K8M1 entry or part of it): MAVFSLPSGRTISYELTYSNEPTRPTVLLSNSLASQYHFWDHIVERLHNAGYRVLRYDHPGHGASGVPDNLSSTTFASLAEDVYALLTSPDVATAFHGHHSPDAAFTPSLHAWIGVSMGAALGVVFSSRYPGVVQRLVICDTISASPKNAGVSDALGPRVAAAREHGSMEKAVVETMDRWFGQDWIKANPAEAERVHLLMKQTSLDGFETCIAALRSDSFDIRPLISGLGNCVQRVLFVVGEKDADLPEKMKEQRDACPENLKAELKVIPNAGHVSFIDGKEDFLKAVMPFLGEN

C[C@H]1CCCC(=O)CCC/C=C/c2cc(O)cc(O)c2C(=O)O1 [zearalenone]
Km: 38.6 ± 5.87 µM
